Source: patent US8846653B2, “Delta-tocotrienol treatment and prevention of pancreatic cancer” (University of South Florida, priority 2006, dated 2014)

How the values were obtained:
Type in all cases: cell-based, human
[1] = system: SW1990 pancreatic cancer cells; test: MTS assay of SW1990 cultures, single 50 μM dose; conditions: SW1990, 50 μM
How it was run: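 MTS-based viability was measured 24, 48 or 72 h after a single 50 μM treatment; the agents were α/β/γ/δ-tocotrienol, α/β-tocopherol, tocopherol succinate, geranylgeraniol or succinic acid. The cells were SW1990, cultured in 10% FBS DMEM. Vehicle (ethanol-extracted olive oil) cultures ran in parallel as reference.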

[2] = system: BXPC3 cells; test: MTT assay of BXPC3 cultures, single 50 μM dose; design: MTT assay result, run 1 / MTT assay result, run 2 / MTT assay result, run 3 / MTT assay result, run 4 / MTT assay result, run 5 / MTT assay result, run 6 / MTT assay result, run 7 / MTT assay result, av (average) / MTT assay result, av-blank / MTT assay result, av: unit not given here; conditions: BXPC3, 50 μM; for MTT assay result, av-blank: average minus blank
How it was run: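 Viability measured by MTT assay 48 or 120 hours after one 50 μM treatment with tocol-family compounds, geranylgeraniol, succinic acid or vehicle, with untreated cultures in parallel. BXPC3 cells grown in FBS-supplemented medium, 37° C, humidified 5% CO2.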

[3] = system: MiaPaCa-2 cells; test: MTT assay of MiaPaCa2 cultures, single 50 μM dose; design: rel amt (relative value set to the control): unit not given here; conditions: MiaPaCa2, 50 μM; for MTT assay result, av-blank: average minus blank; for MTT assay result, av: average of 7 runs
How it was run: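 Viability measured by MTT 48 or 120 hours post-treatment, with a vehicle-only (ethanol-extracted olive oil) culture as control. MiaPaCa-2 cultures received one 50 μM exposure to a tocotrienol, tocopherol, tocopherol succinate, geranylgeraniol or succinic acid.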

Question: With `Cc1c(C)c2c(c(C)c1O)CC[C@@](C)(CCC[C@H](C)CCC[C@H](C)CCCC(C)C)O2` [T alpha, alpha tocopherol] as the molecule, how does the “rel amnt (relative value set to the control)” value ([1]; 24 hours) read?
Answer: The value was 122.

Question: And the “MTS assay result, run 1” value ([1]; 24 hours)?
Answer: Its value is 0.188.

Question: And the “MTS assay result, run 2” value ([1]; 24 hours)?
Answer: Its value is 0.183.

Question: What about the “MTS assay result, run 3” value ([1]; 24 hours) of the same molecule?
Answer: Its value is 0.189.

Question: What about the “MTS assay result, run 4” value ([1]; 24 hours) of the same molecule?
Answer: The value was 0.166.

Question: What about the “MTS assay result, run 5” value ([1]; 24 hours) of the same molecule?
Answer: The value was 0.183.

Question: What about the “MTS assay result, run 6” value ([1]; 24 hours) of the same molecule?
Answer: Its value is 0.181.

Question: And the “MTS assay result, run 7” value ([1]; 24 hours)?
Answer: The value was 0.186.

Question: And the “MTS assay result, run 8” value ([1]; 24 hours)?
Answer: Its value is 0.16.

Question: What about the “MTS assay result, run 9” value ([1]; 24 hours) of the same molecule?
Answer: Its value is 0.180.

Question: What about the “rel amnt (relative value set to the control)” value ([1]; 48 hours) of the same molecule?
Answer: The value was 107.

Question: And the “MTS assay result, run 1” value ([1]; 48 hours)?
Answer: Its value is 0.172.

Question: What about the “MTS assay result, run 2” value ([1]; 48 hours) of the same molecule?
Answer: The value was 0.17.

Question: What about the “MTS assay result, run 3” value ([1]; 48 hours) of the same molecule?
Answer: Its value is 0.16.

Question: And the “MTS assay result, run 4” value ([1]; 48 hours)?
Answer: The value was 0.154.

Question: And the “MTS assay result, run 5” value ([1]; 48 hours)?
Answer: The value was 0.154.

Question: And the “MTS assay result, run 6” value ([1]; 48 hours)?
Answer: Its value is 0.167.

Question: What about the “MTS assay result, run 7” value ([1]; 48 hours) of the same molecule?
Answer: Its value is 0.18.

Question: What about the “MTS assay result, run 8” value ([1]; 48 hours) of the same molecule?
Answer: The value was 0.146.

Question: And the “MTS assay result, run 9” value ([1]; 48 hours)?
Answer: Its value is 0.163.

Question: What about the “rel amnt (relative value set to the control)” value ([1]; 72 hours) of the same molecule?
Answer: Its value is 103.

Question: And the “MTS assay result, run 1” value ([1]; 72 hours)?
Answer: Its value is 0.523.

Question: And the “MTS assay result, run 2” value ([1]; 72 hours)?
Answer: The value was 0.478.

Question: And the “MTS assay result, run 3” value ([1]; 72 hours)?
Answer: Its value is 0.46.

Question: And the “MTS assay result, run 4” value ([1]; 72 hours)?
Answer: The value was 0.453.

Question: What about the “MTS assay result, run 5” value ([1]; 72 hours) of the same molecule?
Answer: Its value is 0.443.

Question: What about the “MTS assay result, run 6” value ([1]; 72 hours) of the same molecule?
Answer: The value was 0.456.

Question: And the “MTS assay result, run 7” value ([1]; 72 hours)?
Answer: Its value is 0.38.

Question: And the “MTS assay result, run 8” value ([1]; 72 hours)?
Answer: The value was 0.451.

Question: And the “MTS assay result, run 9” value ([1]; 72 hours)?
Answer: Its value is 0.456.

Question: And the “rel amt (relative value set to the control)” value ([2]; 48 hours)?
Answer: The value was 120.

Question: What about the “MTT assay result, av-blank” value ([2]; 48 hours) of the same molecule?
Answer: Its value is 0.274.

Question: And the “MTT assay result, av (average)” value ([2]; 48 hours, average of 7 runs)?
Answer: Its value is 0.323.

Question: And the “MTT assay result, run 1” value ([2]; 48 hours)?
Answer: Its value is 0.333.

Question: And the “MTT assay result, run 2” value ([2]; 48 hours)?
Answer: The value was 0.328.

Question: And the “MTT assay result, run 3” value ([2]; 48 hours)?
Answer: Its value is 0.352.

Question: And the “MTT assay result, run 4” value ([2]; 48 hours)?
Answer: The value was 0.296.

Question: And the “MTT assay result, run 5” value ([2]; 48 hours)?
Answer: The value was 0.3.

Question: What about the “MTT assay result, run 6” value ([2]; 48 hours) of the same molecule?
Answer: The value was 0.341.

Question: What about the “MTT assay result, run 7” value ([2]; 48 hours) of the same molecule?
Answer: The value was 0.312.

Question: And the “rel amt (relative value set to the control)” value ([2]; 120 hours (5 days))?
Answer: The value was 106.

Question: And the “MTT assay result, av-blank” value ([2]; 120 hours (5 days))?
Answer: The value was 0.611.

Question: What about the “MTT assay result, av” value ([2]; 120 hours (5 days), average of 7 runs) of the same molecule?
Answer: Its value is 0.666.

Question: And the “MTT assay result, run 1” value ([2]; 120 hours (5 days))?
Answer: Its value is 0.657.

Question: And the “MTT assay result, run 2” value ([2]; 120 hours (5 days))?
Answer: Its value is 0.642.

Question: And the “MTT assay result, run 3” value ([2]; 120 hours (5 days))?
Answer: Its value is 0.666.

Question: And the “MTT assay result, run 4” value ([2]; 120 hours (5 days))?
Answer: The value was 0.659.

Question: And the “MTT assay result, run 5” value ([2]; 120 hours (5 days))?
Answer: Its value is 0.705.

Question: And the “MTT assay result, run 6” value ([2]; 120 hours (5 days))?
Answer: The value was 0.66.

Question: And the “MTT assay result, run 7” value ([2]; 120 hours (5 days))?
Answer: The value was 0.672.

Question: And the “rel amt (relative value set to the control)” value ([3]; 48 hours)?
Answer: Its value is 95.

Question: What about the “MTT assay result, av-blank” value ([3]; 48 hours) of the same molecule?
Answer: The value was 0.296.

Question: And the “MTT assay result, av” value ([3]; 48 hours)?
Answer: Its value is 0.342.

Question: What about the “MTT assay result, run 1” value ([3]; 48 hours) of the same molecule?
Answer: The value was 0.365.

Question: And the “MTT assay result, run 2” value ([3]; 48 hours)?
Answer: The value was 0.352.

Question: And the “MTT assay result, run 3” value ([3]; 48 hours)?
Answer: The value was 0.339.

Question: What about the “MTT assay result, run 4” value ([3]; 48 hours) of the same molecule?
Answer: The value was 0.338.

Question: And the “MTT assay result, run 5” value ([3]; 48 hours)?
Answer: Its value is 0.35.

Question: And the “MTT assay result, run 6” value ([3]; 48 hours)?
Answer: Its value is 0.297.

Question: And the “MTT assay result, run 7” value ([3]; 48 hours)?
Answer: Its value is 0.35.

Question: And the “rel amt (relative value set to the control)” value ([3]; 120 hours (5 days))?
Answer: The value was 89.

Question: And the “MTT assay result, av-blank” value ([3]; 120 hours (5 days))?
Answer: The value was 1.604.

Question: What about the “MTT assay result, av” value ([3]; 120 hours (5 days)) of the same molecule?
Answer: The value was 1.656.

Question: And the “MTT assay result, run 1” value ([3]; 120 hours (5 days))?
Answer: Its value is 1.56.

Question: And the “MTT assay result, run 2” value ([3]; 120 hours (5 days))?
Answer: The value was 1.647.

Question: What about the “MTT assay result, run 3” value ([3]; 120 hours (5 days)) of the same molecule?
Answer: The value was 1.59.

Question: What about the “MTT assay result, run 4” value ([3]; 120 hours (5 days)) of the same molecule?
Answer: Its value is 1.619.

Question: And the “MTT assay result, run 5” value ([3]; 120 hours (5 days))?
Answer: The value was 2.059.

Question: And the “MTT assay result, run 6” value ([3]; 120 hours (5 days))?
Answer: The value was 1.526.

Question: And the “MTT assay result, run 7” value ([3]; 120 hours (5 days))?
Answer: Its value is 1.588.
